Columns and labels:
Assay type in all cases: in vivo
[1] = system: Johnsongrass (Sorghum halepense); experiment: Postemergence herbicidal activity, johnsongrass; settings: rate of application 0.3 Kg/Ha, rated after 12-17 days
[2] = system: common chickweed (Stellaria media); experiment: Preemergence herbicidal activity, chickweed; settings: Rate of Application 0.3 Kg/Ha, examined after 12-17 days
[3] = system: green foxtail (Setaria viridis); experiment: Preemergence herbicidal activity, green foxtail; settings: Rate of Application 0.3 Kg/Ha, examined after 12-17 days
[4] = system: velvetleaf (Abutilon theophrasti); experiment: Postemergence herbicidal activity, velvetleaf; settings: rate of application 0.3 Kg/Ha, rated after 12-17 days
[5] = system: soybean (Glycine max var. Winchester); experiment: Postemergence herbicidal activity, soybean; settings: rate of application 0.3 Kg/Ha, rated after 12-17 days
[6] = system: common chickweed (Stellaria media); experiment: Postemergence herbicidal activity, chickweed; settings: rate of application 0.3 Kg/Ha, rated after 12-17 days
[7] = system: field corn (Zea mays var. Pioneer 3732); experiment: Postemergence herbicidal activity, corn; settings: rate of application 0.3 Kg/Ha, rated after 12-17 days
[8] = system: wheat (Triticum aestivum var. Lew); experiment: Preemergence herbicidal activity, wheat; settings: Rate of Application 0.3 Kg/Ha, examined after 12-17 days
[9] = system: common cocklebur (Xanthium strumarium L.); experiment: Postemergence herbicidal activity, cocklebur; settings: rate of application 0.3 Kg/Ha, rated after 12-17 days
[10] = system: morningglory (Ipomea lacunosa or Ipomea hederacea); experiment: Preemergence herbicidal activity, morningglory; settings: Rate of Application 0.3 Kg/Ha, examined after 12-17 days
[11] = system: soybean (Glycine max var. Winchester); experiment: Preemergence herbicidal activity, soybean; settings: Rate of Application 0.3 Kg/Ha, examined after 12-17 days
[12] = system: common cocklebur (Xanthium strumarium L.); experiment: Preemergence herbicidal activity, cocklebur; settings: Rate of Application 0.3 Kg/Ha, examined after 12-17 days
[13] = system: field corn (Zea mays var. Pioneer 3732); experiment: Preemergence herbicidal activity, corn; settings: Rate of Application 0.3 Kg/Ha, examined after 12-17 days
[14] = system: blackgrass (Aloepecurus myosuroides); experiment: Preemergence herbicidal activity, blackgrass; settings: Rate of Application 0.3 Kg/Ha, examined after 12-17 days
[15] = system: green foxtail (Setaria viridis); experiment: Postemergence herbicidal activity, green foxtail; settings: rate of application 0.3 Kg/Ha, rated after 12-17 days
[16] = system: velvetleaf (Abutilon theophrasti); experiment: Preemergence herbicidal activity, velvetleaf; settings: Rate of Application 0.3 Kg/Ha, examined after 12-17 days
[17] = system: blackgrass (Aloepecurus myosuroides); experiment: Postemergence herbicidal activity, blackgrass; settings: rate of application 0.3 Kg/Ha, rated after 12-17 days
[18] = system: morningglory (Ipomea lacunosa or Ipomea hederacea); experiment: Postemergence herbicidal activity, morningglory; settings: rate of application 0.3 Kg/Ha, rated after 12-17 days
[19] = system: Johnsongrass (Sorghum halepense); experiment: Preemergence herbicidal activity, johnsongrass; settings: Rate of Application 0.3 Kg/Ha, examined after 12-17 days
[20] = system: wheat (Triticum aestivum var. Lew); experiment: Postemergence herbicidal activity, wheat; settings: rate of application 0.3 Kg/Ha, rated after 12-17 days

Compound	Postemergence herbicidal activity (% control) SORHA [1] [%]	PREEMERGENCE HERBICIDAL ACTIVITY (% CONTROL) STEME [2] [%]	PREEMERGENCE HERBICIDAL ACTIVITY (% CONTROL) SETVI [3] [%]	Postemergence herbicidal activity (% control) ABUTH [4] [%]	Postemergence herbicidal activity (% control) SOY [5] [%]	Postemergence herbicidal activity (% control) STEME [6] [%]	Postemergence herbicidal activity (% control) CRN [7] [%]	PREEMERGENCE HERBICIDAL ACTIVITY (% CONTROL) WHT [8] [%]	Postemergence herbicidal activity (% control) XANPE [9] [%]	PREEMERGENCE HERBICIDAL ACTIVITY (% CONTROL) IPOSS [10] [%]	PREEMERGENCE HERBICIDAL ACTIVITY (% CONTROL) SOY [11] [%]	PREEMERGENCE HERBICIDAL ACTIVITY (% CONTROL) XANPE [12] [%]	PREEMERGENCE HERBICIDAL ACTIVITY (% CONTROL) CRN [13] [%]	PREEMERGENCE HERBICIDAL ACTIVITY (% CONTROL) ALOMY [14] [%]	Postemergence herbicidal activity (% control) SETVI [15] [%]	PREEMERGENCE HERBICIDAL ACTIVITY (% CONTROL) ABUTH [16] [%]	Postemergence herbicidal activity (% control) ALOMY [17] [%]	Postemergence herbicidal activity (% control) IPOSS [18] [%]	PREEMERGENCE HERBICIDAL ACTIVITY (% CONTROL) SORHA [19] [%]	Postemergence herbicidal activity (% control) WHT [20] [%]
Cn1c(C(F)(F)F)cc(=O)n(-c2c(F)cc(Cl)c3oc(N)nc23)c1=O [Compound 38]	50	0	75	100	70	0	60	50	45	100	60	70	80	30	40	100	20	100	60	35
Cn1c(C(F)(F)F)cc(=O)n(-c2c(F)cc(Br)c3oc(N)nc23)c1=O [Compound 98]	20	70	30	60	40	5	50	40	20	75	50	60	80	10	40	80	5	20	65	10
Cn1c(C(F)(F)F)cc(=O)n(-c2c(F)cc(Br)c3oc(NS(C)(=O)=O)nc23)c1=O [Compound 108]	20	40	50	20	50	0	60	0	10	50	0	10	10	50	70	70	10	60	30	20
Cc1nc2c(-n3c(=O)cc(C(F)(F)F)n(N)c3=O)c(F)cc(Cl)c2o1 [Compound 112]	100	100	100	100	100	100	100	100	100	100	100	100	100	100	100	100	100	100	100	100
CCCC(C)c1cc2c(Cl)cc(F)c(-n3c(=O)cc(C(F)(F)F)n(C)c3=O)c2o1 (stereo not shown) [Compound 229]	100	100	100	100	95	100	80	70	100	100	100	95	90	80	100	100	70	100	100	60
C=Cc1cc2c(Cl)cc(F)c(-n3c(=O)cc(C(F)(F)F)n(C)c3=O)c2o1 [Compound 230]	90	100	100	100	95	90	80	40	100	100	100	100	80	80	100	100	70	100	100	40
CC(Cl)c1cc2c(Cl)cc(F)c(-n3c(=O)cc(C(F)(F)F)n(C)c3=O)c2o1 (stereo not shown) [Compound 234]	100	100	100	100	100	100	100	100	100	100	100	100	100	80	100	100	100	100	100	100
CC(F)c1cc2c(Cl)cc(F)c(-n3c(=O)cc(C(F)(F)F)n(C)c3=O)c2o1 (stereo not shown) [Compound 235]	100	100	100	100	100	100	100	90	100	100	100	100	100	80	100	100	100	100	100	100

Reference: patent US6352958B1, “Cycloimido-substituted benzofused heterocyclic herbicides” (FMC Corporation, priority 1997, dated 2002)
